PMC11129186, “New Improved cGMP Analogues to Target Rod Photoreceptor Degeneration” (Journal of Medicinal Chemistry, 2024)
Like-named read-outs stand apart in the source and are kept apart here.

Experiments:
[1] = test system: 661W-A11 cells stressed with zaprinast; assay: Cell viability MTT assay in cells stressed with zaprinast; assay type: cell-based, mouse; conditions: 50 μM compound, 200 μM zaprinast for 48 h
Description: The neuroprotective activity of the newly developed compounds was then evaluated in 661W-A11 cells stressed with zaprinast. Viability was assessed by an MTT assay.
(§1) 661W-A11 cells were seeded in 96-well plates at a density of 6000 cells/well or in 24-well plates at a density of 20,000 cells/well. Twenty-four h after seeding, cells were pretreated with 50 μM of either CN03-Na^+ or CN03 or SP-CN03 or oxo-CN03 or dithio-CN03 for 2 h, followed by 200 μM zaprinast treatment for 48 h in the presence of the compounds. Control groups were treated with an equal volume of vehicle, H2O or DMSO.
661W-A11 cells were cultured on 96-well plates at a density of 6000 cells/well. After compound treatments, the culture medium was replaced with medium containing 1 mg/mL of MTT (Sigma) and cells were cultured for 90 min at 37 °C. Viability was assessed by MTT assay (see above for detailed procedure). OD was measured at 570 nm.

[2] = test system: 661W-A11 cells stressed with zaprinast; assay: Cell death TUNEL assay in cells stressed with zaprinast; assay type: cell-based, mouse; conditions: 50 μM compound, 200 μM zaprinast for 48 h
Description: Viability assay cannot discriminate between protection from cell death and possible increased proliferation induced by the treatment. To discriminate between these two responses, we analyzed cell death by the TUNEL assay that detects dying cells based on fragmented chromatin. The TUNEL assay confirmed data obtained with the MTT assay (Figure 3B,C).
as §1
661W-A11 cells were seeded in 24-well plates at a density of 20,000 cells/well. After treatments, cells were fixed with 2% paraformaldehyde for 10 min and permeabilized with 1 M Na^+ citrate and 0.1% Triton X-100 on ice for 2 min. Cells were incubated with TUNEL solution “In situ Cell Death Detection Kit” TMR Red (Roche) for 30 min at 37 °C, and cell nuclei were stained with 0.1 μg/mL 4′,6-diamidin-2-fenilindolo (DAPI). […] The quantification of percentage of dead cells was based on the ratio of TUNEL-labeled cells on the total number of cells (DAPI-labeled).

[3] = test system: 661W-A11 cells stressed with zaprinast; assay: Dose-response curves of cell viability (MTT) under zaprinast stress; assay type: cell-based, mouse; conditions: for EC50: read-out: EC50 of cell viability
Description: For this analysis, we used the 661W-A11 cells stressed with zaprinast and exposed them to scaling concentrations of either dithio-CN03 or SP-CN03 or CN03-Na^+. The effects were evaluated by the cell viability MTT assay (Figure 5). […] Nevertheless, CN03-Na^+ and SP-CN03 reached up to 70–80% cell viability, while dithio-CN03 could protect rod photoreceptors to almost 100% cell viability at the highest doses (Figure 5). Although dithio-CN03 was considered more hydrophobic, and its entrance in the cells could have been facilitated by this feature, the calculated EC50 was nonetheless similar to more hydrophilic analogues.
661W-A11 cells were seeded in 96-well plates at a density of 6000 cells/well, and the following day they were pretreated with scaling concentrations of either CN03-Na^+ or SP-CN03 or dithio-CN03 for 2 h and then stressed with zaprinast 200 μM in the presence of the compounds for 48 h. Cell viability was assessed by MTT assay (see above for detailed procedure). OD was measured at 570 nm. Data were plotted and EC50 calculated using GraphPad Prism version 7.

[4] = test system: primary photoreceptor cells derived from rd1 mutant mice; assay: Cell death TUNEL assay in primary photoreceptors; assay type: cell-based, mouse; conditions: for neuroprotective effect, cell death (TUNEL): 50 μM added at day 10 of differentiation, read at day 11
Description: To address this possible limitation of the RP model, we tested the CN03 analogues in another RP in vitro cellular model, previously validated for the analysis of cGMP analogues.[10] This model is based on the primary cell culture and differentiation of cells derived from rd1 mutant eyes. The rd1 mouse is one of the best characterized murine models of RP. It carries a mutation in the Phosphodiesterase 6b (Pde6b) gene. Lack of PDE6 function causes high intracellular levels of cGMP in rod photoreceptor cells.[26],[9] […] CN03-Na^+, SP-CN03, and dithio-CN03 were administered to the culture of rd1 mutant cells at a concentration of 50 μM at day 10 of differentiation. The concentration of the compounds and the time of treatment were chosen based on the previously published study in which cGMP inhibitory analogues were tested in this type of primary photoreceptors.[10] Cell death was then analyzed by the TUNEL assay at day 11 of in vitro differentiation.
rd1 mutant mice were purchased from Charles River Italy. The protocol was approved by the Ethical Committee of the University of Modena and Reggio Emilia and by the Italian Ministero della Salute (150/2021-PR). Primary neurospheres were derived from the eyes of rd1 mutant mice, as previously reported.[32] Retinal stem cells in neurospheres were differentiated into photoreceptors, as previously reported.[10]rd1 mutant photoreceptor cells underwent spontaneous cell death after differentiation for 11 days. At day 10, 50 μM of either CN03-Na^+ or SP-CN03 or dithio-CN03 were added to the cells in culture and cell death was assessed 1 day later (day 11 of differentiation) by TUNEL assay (see above for detailed procedure).

[5] = molecular target: PDE6 purified enzyme; parameters: method as in PMID 16123402; conditions: cited from earlier work
[6] = test system: PKG; parameters: method as in PMID 29531030; conditions: in vitro and in vivo; cited from earlier work
[7] = test system: CNGC; parameters: method as in PMID 29531030; conditions: in vitro and in vivo; cited from earlier work
[8] = test system: photoreceptor cells of murine models of RP; parameters: method as in PMID 29531030; conditions: in vivo delivered; cited from earlier work

O=c1c2nc(Br)n([C@@H]3O[C@@H]4COP(=O)(O)O[C@H]4[C@H]3O)c2nc2[nH]c(-c3ccccc3)cn12 [oxo-CN03, Triethylammonium 8-Bromo-β-phenyl-1,N^2-ethenoguanosine-3′,5′-cyclicmonophosphate]
protective effect on cell viability (MTT) [1]: All CN03 compounds, except oxo-CN03, were able to improve cell viability
protection from cell death (TUNEL) [2]: failure of oxo-CN03 to protect

O=c1c2nc(Br)n([C@@H]3O[C@@H]4CO[P@@]([O-])(=S)O[C@H]4[C@H]3O)c2nc2[nH]c(-c3ccccc3)cn12.[Na+] [CN03-Na^+]
cell viability reached at the highest doses [3]: 70–80%
EC50 ([3]; 200 μM zaprinast for 48 h, doses 1 μM to 1 mM, MTT): 16.9 µM
neuroprotective effect, cell death (TUNEL) [4]: decreased the percentage of cell death

CCCOc1ccccc1-c1nc2nn[nH]c2c(=O)[nH]1 [zaprinast]
Ki [5]: 0.03 µM

O=c1c2nc(Br)n([C@@H]3O[C@@H]4CO[P@@](O)(=S)O[C@H]4[C@H]3O)c2nc2[nH]c(-c3ccccc3)cn12 [CN03, RP-8-Br-PET-cGMPS]
interference with PKG activity [6]: interfere with PKG activity
block of Ca2+ influx through the CNGC [7]: block Ca^2+ influx through the CNGC
preservation of photoreceptor cells [8]: could preserve photoreceptor cells of murine models of RP

O=c1c2nc(Br)n([C@@H]3O[C@@H]4CO[P@](O)(=S)O[C@H]4[C@H]3O)c2nc2[nH]c(-c3ccccc3)cn12 [SP-CN03, Triethylammonium SP-8-Bromo-β-phenyl-1,N^2-ethenoguanosine-3′,5′-cyclicmonophosphorothioate]
cell viability reached at the highest doses ([3]; 200 μM zaprinast for 48 h, MTT): 70–80%
EC50 ([3]; Mus musculus, 661W-A11, 48 h): 16 µM
protective effect on cell viability (MTT) [1]: increasing cell viability
neuroprotective effect, cell death (TUNEL) [4]: neuroprotective effect similar to CN03-Na^+
toxicity to photoreceptors ([4]; 50 μM, 24 h): not toxic to photoreceptors
